Data: the NIST ThermoML archive (doi:10.1021/je200806n)

Assay: xn = mol fraction of the nth substance listed
Settings: 101.3 kPa, Liquid

O=C1CCCCC1 [cyclohexanone] + CC(C)O
Settings | mass density, 298.15 K [kg/m3] | mass density, 303.15 K [kg/m3] | mass density, 308.15 K [kg/m3] | mass density, 313.15 K [kg/m3] | viscosity, 298.15 K [mPa·s] | viscosity, 303.15 K [mPa·s] | viscosity, 308.15 K [mPa·s] | viscosity, 313.15 K [mPa·s]
x1 = 0.0812 | 797.69 | 792.97 | 788.11 | 783.28 | 1.689 | 1.489 | 1.301 | 1.142
x1 = 0.1576 | 812.54 | 807.67 | 802.73 | 797.79 | 1.436 | 1.268 | 1.098 | 0.961
x1 = 0.2398 | 827.76 | 822.83 | 817.68 | 812.71 | 1.236 | 1.081 | 0.934 | 0.817
x1 = 0.3495 | 846.99 | 841.93 | 836.59 | 831.76 | 1.067 | 0.934 | 0.809 | 0.715
x1 = 0.4363 | 861.43 | 856.27 | 851.05 | 846.26 | 1.023 | 0.899 | 0.779 | 0.689
x1 = 0.5601 | 880.96 | 875.76 | 870.51 | 865.33 | 1.076 | 0.951 | 0.845 | 0.751
x1 = 0.6502 | 894.41 | 889.21 | 884.09 | 878.95 | 1.177 | 1.056 | 0.949 | 0.854
x1 = 0.7403 | 907.32 | 902.15 | 897.23 | 892.17 | 1.331 | 1.202 | 1.087 | 0.995
x1 = 0.8481 | 922.15 | 917.06 | 912.28 | 907.09 | 1.581 | 1.437 | 1.301 | 1.211
x1 = 0.9384 | 934.01 | 929.05 | 924.41 | 919.35 | 1.845 | 1.675 | 1.537 | 1.412
x1 = 1 | 941.91 | 937.24 | 932.67 | 927.72 | 2.057 | 1.847 | 1.694 | 1.546

CC(C)O [propan-2-ol] + O=C1CCCCC1
x2 = 0
Settings | mass density [kg/m3] | viscosity [mPa·s]
298.15 K | 781.09 | 2.055
303.15 K | 776.57 | 1.788
308.15 K | 771.87 | 1.563
313.15 K | 767.36 | 1.378

O=C1CCCCC1 [cyclohexanone] + CCCCC(C)O
x1 = 1
Settings | mass density [kg/m3] | viscosity [mPa·s]
298.15 K | 941.91 | 2.057
303.15 K | 937.24 | 1.847
308.15 K | 932.67 | 1.694
313.15 K | 927.72 | 1.546

O=C1CCCCC1 [cyclohexanone] + CCCCCC(C)O
x1 = 1
Settings | mass density [kg/m3] | viscosity [mPa·s]
298.15 K | 941.91 | 2.057
303.15 K | 937.24 | 1.847
308.15 K | 932.67 | 1.694
313.15 K | 927.72 | 1.546

CCC(C)O (stereo not given) [butan-2-ol] + O=C1CCCCC1
x2 = 0
Settings | mass density [kg/m3] | viscosity [mPa·s]
298.15 K | 803.01 | 3.104
303.15 K | 798.29 | 2.597
308.15 K | 793.57 | 2.152
313.15 K | 789.15 | 1.733
